Results published in patent US9682966B2, “Kappa opioid ligands” (The Scripps Research Institute, priority 2012, dated 2017).

Target: kappa opioid receptor (OPRK1) (Homo sapiens (Human), UniProt P41145)
Experiment: OPRK1 antagonist assay (b-arrestin-2-TEV / b-lactamase reporter, EC80 U-50488 challenge)
Assay type: cell-based
Conditions: % inhibition to which the printed IC50 value refers, if other than 50%

Chain of kappa opioid receptor (OPRK1) (P41145 whole entry): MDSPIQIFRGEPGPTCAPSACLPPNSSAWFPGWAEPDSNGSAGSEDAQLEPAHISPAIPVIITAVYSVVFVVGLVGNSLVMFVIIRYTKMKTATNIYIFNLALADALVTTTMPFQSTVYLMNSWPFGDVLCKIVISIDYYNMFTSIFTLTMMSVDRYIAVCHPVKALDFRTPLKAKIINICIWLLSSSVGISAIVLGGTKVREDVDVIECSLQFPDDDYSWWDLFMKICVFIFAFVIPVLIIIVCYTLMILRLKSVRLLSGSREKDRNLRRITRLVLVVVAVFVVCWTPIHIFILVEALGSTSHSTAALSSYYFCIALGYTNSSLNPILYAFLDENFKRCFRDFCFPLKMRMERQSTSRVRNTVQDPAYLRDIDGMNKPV

Row | % inhib if other than 50% | Compound
1 | 85% | O=C(O)c1cc(Br)cnc1N1CCC(NC2CCCCC2)CC1 [compound 34]

Same assay, conditions: OPRK1 antagonist assay vs EC80 U-50488

Row | Compound | IC50
2 | Cc1cnc(N2CCC(NCC(C)C)CC2)c(-c2nc(C)no2)c1 [compound 393] | 346 nM
3 | O=Cc1cc(Br)cnc1N1CCC(NC2CCCCC2)C(CO)C1 (centres unmarked) [C46] | > 10000 nM
4 | COC(=O)c1cc(C#N)c(N2CCC(NC3CCCCC3)C(CO)C2)nc1C (centres unmarked) [C56] | > 20000 nM
5 | Cc1ccc2nc(N3CCC(NCC(C)(C)O)CC3)c(-c3noc(C)n3)cc2c1 [compound 412] | 476 nM
6 | CO[C@@H]1CN(c2nc3ccccc3cc2-c2nc(C)no2)CC[C@@H]1NC1CCCCC1 [compound 329] | 12.2 nM
7 | Cc1ccc2nc(N3CCCC(NC4CCCCC4)CC3)c(-c3nc(C)no3)cc2c1 (centres unmarked) [C80] | > 10000 nM
8 | COCCOC(=O)c1cc(Br)cnc1N1CCC(NC2CCCCC2)CC1 [C31] | > 10000 nM
9 | COC(=O)c1cc(Br)cnc1N1CCC(N[C@@H]2CCCCC[C@@H]2O)CC1 [C9] | > 10000 nM
10 | Cc1ccc2nc(N3CCC(NC4CCCCC4)C(CO)C3)c(-c3noc(C)n3)cc2c1 (centres unmarked) [compound 328] | 0.72 nM
11 | COC(=O)c1cc(NC(=O)c2cc(C)on2)cnc1N1CCC(NC2CCCCC2)CC1 [C34] | > 10000 nM
12 | COC(=O)c1cc(C#N)c(N2CCC(NC3CCCCC3)C(O)C2)nc1C (centres unmarked) [C57] | > 20000 nM
13 | COC1CN(c2ncc(C)cc2-n2ccc(C)n2)CCC1NC1CCCCC1 (centres unmarked) [compound 358] | 9 nM
14 | Cc1ccc2nc(N3CCC(NC4CCC[C@@H]4O)CC3)c(-c3nc(C)no3)cc2c1 (some centres unmarked) [compound 372] | 15 nM
15 | CO[C@H]1CN(c2ncc(C)cc2-c2noc(C)n2)CC[C@H]1NC1CCCCC1 [compound 395] | 49 nM
16 | COC(=O)c1cc(Br)cnc1N1CCC(NC2CCCCC2)(C(=O)OC)CC1 [C21] | > 10000 nM
17 | Cc1ccc2nc(N3CCC(NC[C@@H](C)O)CC3)c(-c3noc(C)n3)cc2c1 [compound 423] | 191 nM
18 | COC(=O)c1cc(Br)cnc1N1CCC(N2CCN(C)CC2)CC1 [C8] | > 10000 nM
19 | Cc1cc(C)c2nc(N3CCC(NC4CCOCC4)CC3)c(-c3nc(C)no3)cc2c1 [compound 363] | 10 nM
20 | Cc1ccc(-c2nc(C)no2)c(N2CCC(NC3CCCCC3)CC2)n1 [compound 387] | 89 nM
21 | Cc1ccc2nc(N3CCC(NC4CCOC4)CC3)c(-c3ccc(C)nn3)cc2c1 (centres unmarked) [compound 458] | 440 nM
22 | Cc1ccc2nc(N3CCN(CC4CCCCC4)C(CO)C3)c(-c3nc(C)no3)cc2c1 (centres unmarked) [C76] | > 10000 nM
23 | Cc1ccc2nc(N3CCC(NC4CCCCC4O)CC3)c(-c3ccc(C)nn3)cc2c1 (centres unmarked) [compound 451] | 94 nM

Row | Compound | IC50
24 | CCc1noc(-c2cc(C)cnc2N2CCC(NC3CCCCC3)C(OC)C2)n1 (centres unmarked) [compound 391] | 105 nM
25 | CO[C@@H]1CN(c2nc3ccc(C)cc3cc2-c2nc(C)no2)CC[C@@H]1NC1CCCCC1 [compound 315] | 4 nM
26 | COC(=O)c1ccc(C(F)(F)F)nc1N1CCC(NC2CCCCC2)CC1 [C24] | > 10000 nM
27 | COC(=O)c1cnc(N2CCC(NC3CCCCC3)CC2)c(N)c1 [C38] | > 10000 nM
28 | CO[C@@H]1CN(c2nc(C)ccc2-c2noc(C)n2)CC[C@@H]1NC1CCCCC1 [compound 430] | 1000 nM
29 | COC(=O)c1cc(-c2ccccc2)cnc1N1CCC(NC2CCCCC2)CC1 [C13] | > 10000 nM
30 | COC(=O)c1cc(Br)cnc1N1CCC(Nc2ccccc2)CC1 [C7] | > 10000 nM
31 | Cc1ccc2nc(N3CCC(NC4CCCOC4)CC3)c(-c3noc(C)n3)cc2c1 (centres unmarked) [compound 419] | 2 nM
32 | COC(=O)c1cnc(N2CCC(NC3CCCCC3)CC2)c(NC(C)=O)c1 [C39] | > 10000 nM
33 | Cc1noc(-c2ccc(CO)nc2N2CCC(NC3CCCCC3)CC2)n1 [compound 428] | 101 nM
34 | Cc1ccc2nc(N3CCC(NC[C@H](C)O)CC3)c(-c3noc(C)n3)cc2c1 [compound 424] | 422 nM
35 | Cc1nc(-c2c(N3CCC(NCC(C)C)CC3)nc3ccccc3c2C)no1 [compound 448] | 226 nM
36 | CO[C@@H]1CN(c2ncc(C)cc2-c2nc(C)no2)CC[C@@H]1NC1CCCCC1 [compound 341] | 76 nM
37 | CO[C@H]1CN(c2nc3ccc(C)cc3cc2-c2ccc(C)nn2)CC[C@H]1NC1CCCCC1 [compound 439] | 231 nM
38 | Cc1ccc2nc(N3CCC(NC4CCC[C@@H]4O)CC3)c(-c3ccc(C)nn3)cc2c1 (some centres unmarked) [compound 444] | 634 nM
39 | Cc1ccc2nc(N3CCC(NCC(C)C)CC3)c(-c3noc(C)n3)cc2c1 [compound 413] | 22 nM
40 | Cc1cc(-c2nc(C3CC3)no2)c(N2CCC(NC3CCCCC3)CC2)nn1 [compound 457] | 24 nM
41 | COC(=O)c1cc(C#N)c(N2CCC(NC3CCCCC3)CC2)nc1C [C55] | > 20000 nM
42 | Cc1ccc2nc(N3CCC(NC(=O)C4CCCCC4)CC3)c(-c3nc(C)no3)cc2c1 [C77] | > 10000 nM
43 | Cc1ccc2nc(N3CCC(NC4CCCCCC4)CC3)c(-c3nc(C)no3)cc2c1 [compound 367] | 2 nM
44 | Cc1ccc2nc(N3CCC(CNC4CCCCC4)CC3)c(-c3nc(C)no3)cc2c1 [C84] | > 10000 nM
45 | Cc1ccc2nc(N3CCC(NC4CCCCCC4)CC3)c(-c3noc(C)n3)cc2c1 [compound 415] | 3 nM

Row | Compound | IC50
46 | Cc1ccc2nc(N3CCC(C)(NC4CCCCC4)CC3)c(-c3nc(C)no3)cc2c1 [C75] | > 10000 nM
47 | Cc1cnc(N2CCC(NC3CCCCC3)CC2)c(-c2nc(C)no2)c1 [compound 388] | 20 nM
48 | CO[C@@H]1CN(c2ncc(C)cc2-c2noc(C)n2)CC[C@@H]1NC1CCCCC1 [compound 399] | 953 nM
49 | Cc1noc(-c2cc(C)c(C)nc2N2CCC(NCC(C)C)CC2)n1 [compound 394] | 161 nM
50 | COC(=O)c1cc(C2=CCCCC2)cnc1N1CCC(NC2CCCCC2)CC1 [C17] | > 10000 nM
51 | COC(=O)c1cc(Br)cnc1N1CCCC(NC2CCCCC2)C1 (centres unmarked) [C14] | > 10000 nM
52 | CCC(CC)C(=O)NC1CCN(c2nc3ccc(C)cc3cc2-c2nc(C)no2)CC1 [C78] | > 10000 nM
53 | CO[C@@H]1CN(c2ncc(C)cc2-c2nc(C)no2)CC[C@@H]1NC1CCCC1 [compound 345] | 104 nM
54 | COC(=O)c1cc(NS(C)(=O)=O)cnc1N1CCC(NC2CCCCC2)CC1 [C30] | > 10000 nM
55 | CC(=O)c1cc(C2CC2)cnc1N1CC[C@@H](NC2CCCCC2)[C@H](O)C1 [C62] | > 10000 nM
56 | COC(=O)c1cc(Br)cnc1N1CCC(CN)CC1 [C16] | > 10000 nM
57 | CNC(=O)c1cc2cc(C)ccc2nc1N1CCC(NC2CCCCC2)C(CO)C1 (centres unmarked) [C89] | > 10000 nM
58 | Cc1cc(C(=O)N(C)C)c(N2CCC(NC3CCCCC3)CC2)nn1 [compound 400] | 279 nM
59 | CO[C@H]1CN(c2nc3c(C)cc(C)cc3cc2-c2nc(C)no2)CC[C@H]1NC1CCCCC1 [compound 362] | 3 nM
60 | COC(=O)c1cnc(N2CCC(NC3CCCCC3)CC2)c(Br)c1 [C43] | 15000 nM
61 | Cc1cc(-c2noc(C)n2)c(N2CCC(NC3CCCC[C@@H]3O)CC2)nn1 (some centres unmarked) [compound 452] | 47 nM
62 | Cc1ccc2nc(N3CCC(NC4CCOC4)CC3)c(-c3noc(C)n3)cc2c1 (centres unmarked) [compound 432] | 22 nM
63 | Cc1ccc(-c2nc(C)no2)c(N2CCC(NC3CCCCC3)C(CO)C2)n1 (centres unmarked) [compound 386] | 31 nM
64 | COC1CN(c2nc3ccccc3cc2-c2cccnn2)CCC1NC1CCCCC1 (centres unmarked) [compound 463] | 54 nM
65 | CN(C)C(=O)c1cc(Br)cnc1N1CCC(NC2CCCCC2)CC1 [C19] | > 10000 nM
